SMILES strings stand for the structures.

T1 sequence (Q92633 whole entry, the tested form may be a part): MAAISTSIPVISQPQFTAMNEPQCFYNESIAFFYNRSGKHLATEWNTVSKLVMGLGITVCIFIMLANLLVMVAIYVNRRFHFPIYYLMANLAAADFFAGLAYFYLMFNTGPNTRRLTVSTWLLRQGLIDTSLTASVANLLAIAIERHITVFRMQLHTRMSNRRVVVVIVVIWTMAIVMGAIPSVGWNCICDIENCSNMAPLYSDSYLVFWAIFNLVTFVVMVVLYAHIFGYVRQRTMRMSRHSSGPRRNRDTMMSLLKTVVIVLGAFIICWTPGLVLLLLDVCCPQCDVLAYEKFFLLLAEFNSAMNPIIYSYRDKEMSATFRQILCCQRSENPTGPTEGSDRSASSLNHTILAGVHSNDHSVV

This experiment concerns the target T1, human LPA1 receptor (Homo sapiens, UniProt Q92633).
T1 construct: TEV protease site; Gal4-VP16 transcription factor; host or cells: Tango EDG2-bla U2OS cells
The experiment is described as follows: Beta-arrestin recruitment assay to determine IC50 values for human LPAR1. Format: cell-based. To be noted: Tango EDG2-bla U2OS cells, antagonist assay, LPA 18:1 500 nM final. The essentials:
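Tango EDG2-bla U2OS cells were preincubated 30 min at 37 °C with compound. They were then stimulated with 500 nM (final) LPA 18:1 for 16 h. β-Lactamase reporter read by LiveBLAzer FRET substrate (2 h) as the 460/530 nm ratio; IC50 from 4-parameter logistic fit.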
For orientation: Recruitment of arrestin is a read-out of receptor activation apart from second messengers.
For the compound `COc1cc(Cl)ncc1NC(=O)C1(c2c(F)cccc2C(C)C)CN(S(N)(=O)=O)C1` [Example 21-14, N-(6-chloro-4-methoxypyridin-3-yl)-3-(2-fluoro-6-isopropylphenyl)-1-sulfamoylazetidine-3-carboxamide], the IC50 (in general, the concentration needed to halve the response being measured) amounted to 4 nM.

In the case of `COc1cc(Cl)ncc1NC(=O)C1(c2cc(F)ccc2C(C)C)CN(S(N)(=O)=O)C1` [Example 21-15, N-(6-chloro-4-methoxypyridin-3-yl)-3-(5-fluoro-2-isopropylphenyl)-1-sulfamoylazetidine-3-carboxamide], the IC50 came to 5 nM.

Take `COc1cc(Cl)ncc1NC(=O)C1(c2ncccc2C(C)C)CN(S(N)(=O)=O)C1` [Example 21-16, N-(6-chloro-4-methoxypyridin-3-yl)-3-(3-isopropylpyridin-2-yl)-1-sulfamoylazetidine-3-carboxamide]: the IC50 stood at 12 nM.

For `COc1cc(Cl)ncc1NC(=O)C1(c2nc(F)ccc2C(C)C)CN(S(N)(=O)=O)C1` [Example 21-17, N-(6-chloro-4-methoxypyridin-3-yl)-3-(6-fluoro-3-isopropylpyridin-2-yl)-1-sulfamoylazetidine-3-carboxamide], the IC50 came to 16 nM.

Consider `COc1ccncc1NC(=O)C1(c2ccccc2C(C)C)CN(S(N)(=O)=O)C1` [Example 21-18, 3-(2-isopropylphenyl)-N-(4-methoxypyridin-3-yl)-1-sulfamoylazetidine-3-carboxamide], for which the IC50 worked out at 1560 nM.

As to `COc1cc(Cl)ncc1NC(=O)C1(c2ccccc2C2CCCC2)CN(S(N)(=O)=O)C1` [Example 21-19, N-(6-chloro-4-methoxypyridin-3-yl)-3-(2-cyclopentylphenyl)-1-sulfamoylazetidine-3-carboxamide], the IC50 is 4 nM.

For the compound `COCCNS(=O)(=O)N1CC(C(=O)Nc2cnc(Cl)cc2OC)(c2ccccc2C(C)C)C1` [Example 21-20, N-(6-chloro-4-methoxypyridin-3-yl)-3-(2-isopropylphenyl)-1-(N-(2-methoxyethyl)sulfamoyl)azetidine-3-carboxamide], the 50% inhibitory concentration (IC50) turned out to be 73 nM.

In the case of `COc1cc(Cl)ncc1NC(=O)C1(c2ccccc2C(C)C)CN(S(=O)(=O)NCCO)C1` [Example 21-21, N-(6-chloro-4-methoxypyridin-3-yl)-1-(N-(2-hydroxyethyl)sulfamoyl)-3-(2-isopropylphenyl)azetidine-3-carboxamide], the IC50 was determined as 56 nM.

Take `COc1cc(Cl)ncc1NC(=O)C1(c2ccccc2C(C)C)CN(C(N)=O)C1` [Example 22-1, N3-(6-chloro-4-methoxypyridin-3-yl)-3-(2-isopropylphenyl)azetidine-1,3-dicarboxamide]: the IC50 amounted to 22 nM.

For `CNC(=O)N1CC(C(=O)Nc2cnc(Cl)cc2OC)(c2ccccc2C(C)C)C1` [Example 22-2, N3-(6-chloro-4-methoxypyridin-3-yl)-3-(2-isopropylphenyl)-N1-methylazetidine-1,3-dicarboxamide], the IC50 came out at 12 nM.

As to `CCNC(=O)N1CC(C(=O)Nc2cnc(Cl)cc2OC)(c2ccccc2C(C)C)C1` [Example 22-3, N3-(6-chloro-4-methoxypyridin-3-yl)-N1-ethyl-3-(2-isopropylphenyl)azetidine-1,3-dicarboxamide], the IC50 was determined as 6 nM.

`COc1cc(Cl)ncc1NC(=O)C1(c2ccccc2C(C)C)CN(C(=O)NC(C)C)C1` [Example 22-4, N3-(6-chloro-4-methoxypyridin-3-yl)-N1-isopropyl-3-(2-isopropylphenyl)azetidine-1,3-dicarboxamide]: the IC50 is 9 nM.

As for `COc1cc(Cl)ncc1NC(=O)C1(c2ccccc2C(C)C)CN(C(=O)NC2CC2)C1` [Example 22-5, N3-(6-chloro-4-methoxypyridin-3-yl)-N1-cyclopropyl-3-(2-isopropylphenyl)azetidine-1,3-dicarboxamide], the IC50 was found to be 5 nM.

Consider `COC[C@H](C)Oc1cc(Cl)ncc1NC(=O)C1(c2ccccc2C(C)C)CN(C(=O)NC2CC2)C1` [Example 22-6, (S)-N3-(6-chloro-4-((1-methoxypropan-2-yl)oxy)pyridin-3-yl)-N1-cyclopropyl-3-(2-isopropylphenyl)azetidine-1,3-dicarboxamide], for which the IC50 turned out to be 3 nM.

Take `COc1cc(Cl)ncc1NC(=O)C1(c2ncccc2C(C)C)CN(C(=O)NC2CC2)C1` [Example 22-7, N3-(6-chloro-4-methoxypyridin-3-yl)-N1-cyclopropyl-3-(3-isopropylpyridin-2-yl)azetidine-1,3-dicarboxamide]: the IC50 is 18 nM.

On to `C=C(C)C(=O)OCCNC(=O)N1CC(C(=O)Nc2cnc(Cl)cc2OC)(c2ccccc2C(C)C)C1` [Example 22-8, 2-(3-((6-chloro-4-methoxypyridin-3-yl)carbamoyl)-3-(2-isopropylphenyl)azetidine-1-carboxamido)ethyl methacrylate], for which the IC50 was determined as 12 nM.

On to `COCCNC(=O)N1CC(C(=O)Nc2cnc(Cl)cc2OC)(c2ccccc2C(C)C)C1` [Example 22-10, N3-(6-chloro-4-methoxypyridin-3-yl)-3-(2-isopropylphenyl)-N1-(2-methoxyethyl)azetidine-1,3-dicarboxamide], for which the IC50 was found to be 15 nM.

`CCOC(=O)CNC(=O)N1CC(C(=O)Nc2cnc(Cl)cc2OC)(c2ccccc2C(C)C)C1` [Example 22-11, ethyl (3-((6-chloro-4-methoxypyridin-3-yl)carbamoyl)-3-(2-isopropylphenyl)azetidine-1-carbonyl)glycinate]: the IC50 was 18 nM.

As for `COc1cc(Cl)ncc1NC(=O)C1(c2ccccc2C(C)C)CN(C(=O)NCC(=O)O)C1` [Example 22-12, (3-((6-chloro-4-methoxypyridin-3-yl)carbamoyl)-3-(2-isopropylphenyl)azetidine-1-carbonyl)glycine], the IC50 worked out at 431 nM.

For the compound `CCOC(=O)CCNC(=O)N1CC(C(=O)Nc2cnc(Cl)cc2OC)(c2ccccc2C(C)C)C1` [Example 22-13, ethyl 3-(3-((6-chloro-4-methoxypyridin-3-yl)carbamoyl)-3-(2-isopropylphenyl)azetidine-1-carboxamido)propanoate], the IC50 was found to be 7 nM.

Regarding `COc1cc(Cl)ncc1NC(=O)C1(c2ccccc2C(C)C)CN(C(=O)NCCC(=O)O)C1` [Example 22-14, 3-(3-((6-chloro-4-methoxypyridin-3-yl)carbamoyl)-3-(2-isopropylphenyl)azetidine-1-carboxamido)propanoic acid], the IC50 was determined as 204 nM.

Regarding `COc1cc(Cl)ncc1NC(=O)C1(c2ccccc2C(C)C)CN(C(=O)N(C)C)C1` [Example 22-15, N^3-(6-chloro-4-methoxypyridin-3-yl)-3-(2-isopropylphenyl)-N1,N1-dimethylazetidine-1,3-dicarboxamide], the IC50 came out at 74 nM.

For the compound `COc1cc(Cl)ncc1NC(=O)C1(c2ccccc2C(C)C)CN(C(=O)N2CCOCC2)C1` [Example 22-16, N-(6-chloro-4-methoxypyridin-3-yl)-3-(2-isopropylphenyl)-1-(morpholine-4-carbonyl)azetidine-3-carboxamide], the IC50 turned out to be 201 nM.

Turning to `COC(=O)N1CC(C(=O)Nc2cnc(Cl)cc2OC)(c2ccccc2C(C)C)C1` [Example 23-1, Methyl 3-((6-chloro-4-methoxypyridin-3-yl)carbamoyl)-3-(2-isopropylphenyl)azetidine-1-carboxylate], the IC50 worked out at 6 nM.

Regarding `COCCOC(=O)N1CC(C(=O)Nc2cnc(Cl)cc2OC)(c2ccccc2C(C)C)C1` [Example 23-2, 2-Methoxyethyl 3-((6-chloro-4-methoxypyridin-3-yl)carbamoyl)-3-(2-isopropylphenyl)azetidine-1-carboxylate], the IC50 was determined as 69 nM.

With `COc1cc(Cl)ncc1NC(=O)C1(c2ccccc2C(C)C)CN(c2ccncc2C)C1` [Example 24-1, N-(6-chloro-4-methoxypyridin-3-yl)-3-(2-isopropylphenyl)-1-(3-methylpyridin-4-yl)azetidine-3-carboxamide], the IC50 worked out at 2 nM.

On to `COc1cc(Cl)ncc1NC(=O)C1(c2ccccc2C(C)C)CN(c2ccncc2F)C1` [Example 24-2, N-(6-chloro-4-methoxypyridin-3-yl)-1-(3-fluoropyridin-4-yl)-3-(2-isopropylphenyl)azetidine-3-carboxamide], for which the IC50 was 2 nM.

Consider `COc1cc(Cl)ncc1NC(=O)C1(c2ccccc2C(C)C)CN(c2ccnc(C)c2F)C1` [Example 24-3, N-(6-chloro-4-methoxypyridin-3-yl)-1-(3-fluoro-2-methylpyridin-4-yl)-3-(2-isopropylphenyl)azetidine-3-carboxamide], for which the IC50 is 2 nM.

As to `COc1cc(Cl)ncc1NC(=O)C1(c2ccccc2C(C)C)CN(c2cc(C)ncc2F)C1` [Example 24-4, N-(6-chloro-4-methoxypyridin-3-yl)-1-(5-fluoro-2-methylpyridin-4-yl)-3-(2-isopropylphenyl)azetidine-3-carboxamide], the IC50 was determined as 2 nM.

Take `COc1cc(Cl)ncc1NC(=O)C1(c2ccccc2C(C)C)CN(c2ccnc(C)c2)C1` [Example 24-5, N-(6-chloro-4-methoxypyridin-3-yl)-3-(2-isopropylphenyl)-1-(2-methylpyridin-4-yl)azetidine-3-carboxamide]: the IC50 is 3 nM.

In the case of `COc1cc(Cl)ncc1NC(=O)C1(c2ccccc2C(C)C)CN(c2cc(C)nc(C)c2)C1` [Example 24-6, N-(6-chloro-4-methoxypyridin-3-yl)-1-(2,6-dimethylpyridin-4-yl)-3-(2-isopropylphenyl)azetidine-3-carboxamide], the IC50 was determined as 91 nM.

For the compound `COc1cc(Cl)ncc1NC(=O)C1(c2ccccc2C(C)C)CN(c2cc(F)ccn2)C1` [Example 24-7, N-(6-chloro-4-methoxypyridin-3-yl)-1-(4-fluoropyridin-2-yl)-3-(2-isopropylphenyl)azetidine-3-carboxamide], the IC50 was found to be 1 nM.

With `COc1cc(Cl)ncc1NC(=O)C1(c2ccccc2C(C)C)CN(c2ncc(C#N)cn2)C1` [Example 24-8, N-(6-chloro-4-methoxypyridin-3-yl)-1-(5-cyanopyrimidin-2-yl)-3-(2-isopropylphenyl)azetidine-3-carboxamide], the IC50 amounted to 1 nM.
